From PubChem BioAssay AID256 (DTP/NCI, 2004)
“And” between values parts separate entries of the source, which are not always exact repeats. Equal entries are not always repeated. Inconclusive results and toxic doses are left out.

System: CD2F1 mice, L1210 leukemia ip, survival T/C
Assay: NCI In Vivo Anticancer Drug Screen. Data for tumor model L1210 Leukemia (intraperitoneal) in CD2F1 (CDF1) mice
Conditions: higher = longer survival
In short: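 Activity against a transplanted murine tumor was judged by comparing the compound group with a vehicle group. The outcome in the treated animals was divided by that in the controls.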

## S=c1nc[nH]c2nc[nH]c12
endpoint: mean survival time, dose: 180.0 mg/kg/injection, schedule: Q## X002 (ip), vehicle: saline
  T/C: 164 % of control
endpoint: mean survival time, dose: 180.0 mg/kg/injection, schedule: Q## X009 (ip), vehicle: saline
  T/C: 154 % of control
endpoint: mean survival time, dose: 270.0 mg/kg/injection, schedule: Q## X006 (ip), vehicle: saline
  T/C: 150 % of control
endpoint: mean survival time, dose: 270.0 mg/kg/injection, schedule: Q## X009 (ip), vehicle: saline
  T/C: 153 % of control
endpoint: median survival time, dose: 15.6 mg/kg/injection, schedule: Q01DX009 (ip), vehicle: alkali diluted with saline
  T/C: 116 % of control
endpoint: median survival time, dose: 18.0 mg/kg/injection, schedule: Q01DX009 (ip), vehicle: alkali diluted with saline
  T/C: 118 % of control
endpoint: median survival time, dose: 20.0 mg/kg/injection, schedule: Q01DX005 (ip), vehicle: water
  T/C: 187 % of control
endpoint: median survival time, dose: 25.0 mg/kg/injection, schedule: Q01DX009 (ip), vehicle: Klucel (hydroxypropylcellulose) (HPC)
  T/C: 182 % of control
endpoint: median survival time, dose: 25.0 mg/kg/injection, schedule: Q01DX009 (ip), vehicle: alkali diluted with water
  T/C: 122 % of control
endpoint: median survival time, dose: 25.9 mg/kg/injection, schedule: Q01DX009 (ip), vehicle: alkali diluted with saline
  T/C: 124 % of control
endpoint: median survival time, dose: 26.0 mg/kg/injection, schedule: Q01DX009 (ip), vehicle: Klucel (hydroxypropylcellulose) (HPC)
  T/C: 170 % of control
endpoint: median survival time, dose: 30.0 mg/kg/injection, schedule: Q01DX009 (ip), vehicle: alkali diluted with saline
  T/C: 121 % of control
endpoint: median survival time, dose: 37.5 mg/kg/injection, schedule: Q04DX003 (ip), vehicle: Klucel (hydroxypropylcellulose) (HPC)
  T/C: 154 % of control
endpoint: median survival time, dose: 40.0 mg/kg/injection, schedule: Q01DX005 (ip), vehicle: water
  T/C: 310 % of control
endpoint: median survival time, dose: 40.0 mg/kg/injection, schedule: Q01DX009 (ip), vehicle: Klucel (hydroxypropylcellulose) (HPC)
  T/C: 159 % of control
endpoint: median survival time, dose: 40.0 mg/kg/injection, schedule: Q01DX009 (ip), vehicle: alkali diluted with saline
  T/C: 123 % of control
endpoint: median survival time, dose: 50.0 mg/kg/injection, schedule: Q01DX009 (ip), vehicle: Klucel (hydroxypropylcellulose) (HPC)
  T/C: 259 % of control
endpoint: median survival time, dose: 50.0 mg/kg/injection, schedule: Q01DX009 (ip), vehicle: alkali diluted with water
  T/C: 164 % of control
endpoint: median survival time, dose: 50.0 mg/kg/injection, schedule: Q04DX003 (ip), vehicle: alkali diluted with saline
  T/C: 101 % of control
endpoint: median survival time, dose: 60.0 mg/kg/injection, schedule: Q01DX009 (ip), vehicle: alkali diluted with saline
  T/C: 173 % of control
endpoint: median survival time, dose: 60.0 mg/kg/injection, schedule: Q01DX009 (ip), vehicle: water
  T/C: 159 % of control
endpoint: median survival time, dose: 70.0 mg/kg/injection, schedule: Q01DX009 (ip), vehicle: alkali diluted with saline
  T/C: 151 % of control and 158 % of control
endpoint: median survival time, dose: 72.0 mg/kg/injection, schedule: Q01DX009 (ip), vehicle: alkali diluted with saline
  T/C: 150 % of control
endpoint: median survival time, dose: 75.0 mg/kg/injection, schedule: Q04DX003 (ip), vehicle: Klucel (hydroxypropylcellulose) (HPC)
  T/C: 176 % of control
endpoint: median survival time, dose: 78.0 mg/kg/injection, schedule: Q04DX003 (ip), vehicle: other
  T/C: 120 % of control
endpoint: median survival time, dose: 80.0 mg/kg/injection, schedule: Q01DX005 (ip), vehicle: Klucel (hydroxypropylcellulose) (HPC)
  T/C: 158 % of control
endpoint: median survival time, dose: 80.0 mg/kg/injection, schedule: Q01DX005 (ip), vehicle: water
  T/C: 164 % of control
endpoint: median survival time, dose: 80.0 mg/kg/injection, schedule: Q01DX009 (ip), vehicle: water
  T/C: 158 % of control
endpoint: median survival time, dose: 83.3 mg/kg/injection, schedule: Q01DX009 (ip), vehicle: alkali diluted with saline
  T/C: 160 % of control
endpoint: median survival time, dose: 100.0 mg/kg/injection, schedule: Q01DX001 (ip), vehicle: alkali diluted with saline
  T/C: 117 % of control and 122 % of control
endpoint: median survival time, dose: 100.0 mg/kg/injection, schedule: Q01DX001 (ip), vehicle: alkali diluted with water
  T/C: 157 % of control
endpoint: median survival time, dose: 100.0 mg/kg/injection, schedule: Q01DX005 (ip), vehicle: alkali diluted with water
  T/C: 172 % of control
endpoint: median survival time, dose: 100.0 mg/kg/injection, schedule: Q01DX009 (ip), vehicle: Klucel (hydroxypropylcellulose) (HPC)
  T/C: 211 % of control
endpoint: median survival time, dose: 100.0 mg/kg/injection, schedule: Q04DX003 (ip), vehicle: alkali diluted with saline
  T/C: 116 % of control
endpoint: median survival time, dose: 120.0 mg/kg/injection, schedule: Q01DX009 (ip), vehicle: alkali diluted with saline
  T/C: 154 % of control
endpoint: median survival time, dose: 150.0 mg/kg/injection, schedule: Q04DX003 (ip), vehicle: Klucel (hydroxypropylcellulose) (HPC)
  T/C: 178 % of control
endpoint: median survival time, dose: 160.0 mg/kg/injection, schedule: Q01DX005 (ip), vehicle: Klucel (hydroxypropylcellulose) (HPC)
  T/C: 164 % of control
endpoint: median survival time, dose: 200.0 mg/kg/injection, schedule: Q01DX005 (ip), vehicle: alkali diluted with water
  T/C: 89 % of control
endpoint: median survival time, dose: 200.0 mg/kg/injection, schedule: Q01DX009 (ip), vehicle: Klucel (hydroxypropylcellulose) (HPC)
  T/C: 154 % of control
endpoint: median survival time, dose: 200.0 mg/kg/injection, schedule: Q01DX009 (ip), vehicle: alkali diluted with water
  T/C: 88 % of control
endpoint: median survival time, dose: 200.0 mg/kg/injection, schedule: Q04DX003 (ip), vehicle: alkali diluted with saline
  T/C: 155 % of control
endpoint: median survival time, dose: 200.0 mg/kg/injection, schedule: Q04DX003 (ip), vehicle: other
  T/C: 475 % of control
endpoint: median survival time, dose: 400.0 mg/kg/injection, schedule: Q01DX009 (ip), vehicle: Klucel (hydroxypropylcellulose) (HPC)
  T/C: 152 % of control
endpoint: median survival time, dose: 600.0 mg/kg/injection, schedule: Q04DX003 (ip), vehicle: Klucel (hydroxypropylcellulose) (HPC)
  T/C: 194 % of control
